Holding throughout (experiment): Antibacterial activity in vitro, MIC by broth dilution
What all share (type): cell-based
In general terms: Dilution methods test growth across graded concentrations, often in twofold steps.

One assay has as its system E. coli ML308-225 Tc^s. Set-up: unit not given here. As to conditions: E. coli ML308-225, tetracycline susceptible, 18 hrs. As for the experimental part:
(§1) Various compounds made in accordance with the invention were evaluated for anti-bacterial activity in vitro as follows. The minimum inhibitory concentration, the lowest concentration of drug that inhibits bacterial growth at 18 hrs at their appropriate temperature, is determined by the broth dilution method using L-broth or Mueller-Hinton broth. The Mueller-Hinton broth was cation-adjusted accordingly and all bacteriological methods were performed as was described by Waitz, J. A., National Commission for Clinical Laboratory Standards Document M7-A2, vol. 10, no. 8, pp. 13-20, 2nd edition, Villanova, Pa. (1990). The organisms tested represent gram-positive and gram-negative bacterial species that are susceptible to tetracyclines or are resistant to tetracyclines due to the ability to efflux tetracyclines or which confer resistance by ribosomal protection mechanisms. The clinical strains used are either susceptible to tetracyclines or are resistant to them by either drug efflux or ribosomal protection.

For assay [1], the system named is S. warnerii Tc^r ATCC12715. Set-up: unit not given here. As to conditions: S. warnerii ATCC12715, tetracycline resistant, 18 hrs. How it is done: as §1
Another assay concerns E. hirae ATCC9790 Tc^s. Also on record: unit not given here. The following applies: E. hirae ATCC9790, tetracycline susceptible, 18 hrs. As for the experimental part:
as §1

A further assay relates to S. aureus MRSA5 Tc^r. Also on record: unit not given here. The following applies: S. aureus MRSA5, tetracycline resistant, 18 hrs. As for the experimental part: as §1
For a further assay, the system named is E. coli D1-209 Tc^r. Set-up: unit not given here. The following applies: E. coli D1-209, tetracycline resistant, 18 hrs. As for the experimental part:
as §1

The subject of a further assay is E. coli D1-299 Tc^r. Set-up: unit not given here. As to conditions: E. coli D1-299, tetracycline resistant, 18 hrs. As for the experimental part: as §1
The next assay relates to S. aureus RN450 Tc^s. As to conditions: S. aureus RN450, tetracycline susceptible, 18 hrs. As for the experimental part:
as §1

Assay [2] concerns E. coli D 31m4 pHCM1 Tc^r. The following applies: E. coli D 31m4 pHCM1, tetracycline resistant, 18 hrs. As for the experimental part:
as §1

In assay [3] the test system is E. hirae 9790 with pMV158 Tc^r. The following applies: E. hirae 9790 with pMV158, tetracycline resistant, 18 hrs. As for the experimental part: as §1
A further assay concerns E. coli D31m4 Tc^s. As to conditions: E. coli D31m4, tetracycline susceptible, 18 hrs. How it is done:
as §1

Assay [4] relates to E. hirae 9790 with pAM211 Tc^r. As to conditions: E. hirae 9790 with pAM211, tetracycline resistant, 18 hrs. How it is done: as §1
Another assay deals with S. aureus RN4250 Tc^r. The following applies: S. aureus RN4250, tetracycline resistant, 18 hrs. How it is done:
as §1

Data on seven compounds can be found in patent US8106225B2, “Methods of preparing substituted tetracyclines with transition metal-based chemistries” (Trustees of Tufts College, priority 1999, dated 2012).

For `Cc1ccc(C=C2c3cccc(O)c3C(=O)C3=C(O)C4(O)C(=O)C(C(N)=O)=C(O)C(N(C)C)C4C(O)C23)cc1` (stereo not drawn) [I, [4S-(4a,12aα)]-13-(4′-methylphenyl)-4-(dimethylamino)-1,4,4a,5,5a,6,11,12a-octahydro-3,5,10,12,12a-pentahydroxy-6-methylene-1,11-dioxo-2-naphthacenecarboxamide], the “Antibacterial Activity (minimum inhibitory concentration)” value with E. coli ML308-225 Tc^s is listed as greater than 50; in assay [1], 12.5; in the assay with E. hirae ATCC9790 Tc^s it was 0.39; in the assay with S. aureus MRSA5 Tc^r, 6.25; in the assay with E. coli D1-209 Tc^r it was greater than 50; in the assay with E. coli D1-299 Tc^r it was greater than 50. The “Antibacterial Activity (minimum inhibitory concentration)” value with S. aureus RN450 Tc^s is recorded as “≦0.098”; in assay [2], 25; in assay [3] it was 3.12.

In the case of `CCCCOC(=O)/C=C/c1cc(N(C)C)c2c(c1O)C(=O)C1=C(O)C3(O)C(=O)C(C(N)=O)=C(O)C(N(C)C)C3CC1C2` (stereo not drawn) [F, [4S-(4a,12aα)]-9-[3′-(E)-butylpropenoate]-4,7-Bis(dimethylamino)-1,4,4a,5,5a,6,11,12a-octahydro-3,10,12,12a-tetrahydroxy-1,11-dioxo-2-naphthacenecarboxamide], the “Antibacterial Activity (minimum inhibitory concentration)” value was greater than 50 in the assay on E. coli ML308-225 Tc^s; 3.12 in assay [1]; 3.12 in the assay on E. hirae ATCC9790 Tc^s; 3.12 in the assay on S. aureus MRSA5 Tc^r; greater than 50 in the assay with E. coli D1-209 Tc^r; greater than 50 in the assay on E. coli D1-299 Tc^r. The “Antibacterial Activity (minimum inhibitory concentration)” value came out at 1.56 in the assay on S. aureus RN450 Tc^s, 6.25 in assay [2] and 3.12 with E. coli D31m4 Tc^s.

In the case of `CC1c2ccc(/C=C/C(=O)O)c(O)c2C(=O)C2=C(O)C3(O)C(=O)C(C(N)=O)=C(O)[C@@H](N(C)C)C3C(O)C21` (stereo partly drawn) [D, [4S-(4a,12aα)]-9-[3′-(E)-propenoic acid]-4-(dimethylamino)-1,4,4a,5,5a,6,11,12a-octahydro-3,5,10,12,12a-pentahydroxy-6-methyl-1,11-dioxo-2-naphthacenecarboxamide], the “Antibacterial Activity (minimum inhibitory concentration)” value in the assay on E. coli ML308-225 Tc^s was 25; in assay [1], greater than 50; in the assay on E. hirae ATCC9790 Tc^s, 3.12; in the assay with S. aureus MRSA5 Tc^r it was greater than 50; with E. coli D1-209 Tc^r, greater than 50; in the assay on E. coli D1-299 Tc^r it was greater than 50. Moreover, the “Antibacterial Activity (minimum inhibitory concentration)” value is greater than 50 in [4]; 3.12 in the assay with S. aureus RN450 Tc^s; greater than 50 in [2]; 12.5 in [3]; greater than 50 in the assay with E. coli D31m4 Tc^s; greater than 50 in the assay on S. aureus RN4250 Tc^r.

For the compound `CN(C)C1C(O)=C(C(N)=O)C(=O)C2(O)C(O)=C3C(=O)c4c(O)c(-c5ccccc5)cc(-c5ccccc5)c4CC3CC12` (stereo not drawn) [H, [4S-(4a,12aα)]-7-phenyl-9-phenyl-4-(dimethylamino)-1,4,4a,5,5a,6,11,12a-octahydro-3,10,12,12a-tetrahydroxy-1,11-dioxo-2-naphthacenecarboxamide], the “Antibacterial Activity (minimum inhibitory concentration)” value in the assay on E. coli ML308-225 Tc^s is greater than 50; in assay [1], 0.78; in the assay on E. hirae ATCC9790 Tc^s it was 0.78; in the assay on S. aureus MRSA5 Tc^r, 0.78; in the assay with E. coli D1-209 Tc^r it was greater than 50; with E. coli D1-299 Tc^r, greater than 50. Further, the “Antibacterial Activity (minimum inhibitory concentration)” value was determined as 1.56 in the assay with S. aureus RN450 Tc^s, 0.39 in assay [3], 1.56 with E. coli D31m4 Tc^s and 0.78 in the assay on S. aureus RN4250 Tc^r.

As for `CCCCOC(=O)/C=C/c1ccc2c(c1O)C(=O)C1=C(O)C3(O)C(=O)C(C(N)=O)=C(O)[C@@H](N(C)C)C3C(O)C1C2C` (stereo partly drawn) [E, [4S-(4a,12aα)]-9-[3′-(E)-butylpropenoate]-4-(dimethylamino)-1,4,4a,5,5a,6,11,12a-octahydro-3,5,10,12,12a-pentahydroxy-6-methyl-1,11-dioxo-2-naphthacenecarboxamide], the “Antibacterial Activity (minimum inhibitory concentration)” value in the assay with E. coli ML308-225 Tc^s is on record as 6.25; in assay [1], 6.25; with E. hirae ATCC9790 Tc^s, 3.12; in the assay with S. aureus MRSA5 Tc^r, 0.39; in the assay with E. coli D1-209 Tc^r it was greater than 50; with E. coli D1-299 Tc^r, greater than 50. Also, the “Antibacterial Activity (minimum inhibitory concentration)” value in the assay on S. aureus RN450 Tc^s is reported as 0.78.

Turning to `C[C@H]1c2cccc(O)c2C(=O)C2=C(O)[C@]3(O)C(=O)C(C(N)=O)=C(O)[C@@H](N(C)C)[C@@H]3[C@@H](O)[C@@H]21` [Doxy, [4S-(4a,12aα)]-4-(dimethylamino)-1,4,4a,5,5a,6,11,12a-octahydro-3,5,10,12,12a-pentahydroxy-6-methyl-1,11-dioxo-2-naphthacenecarboxamide, reference compound], the “Antibacterial Activity (minimum inhibitory concentration)” value in the assay with E. coli ML308-225 Tc^s was determined as 0.78; in assay [1], 50; in the assay on E. hirae ATCC9790 Tc^s it was 0.195; in the assay with S. aureus MRSA5 Tc^r, 6.25; with E. coli D1-209 Tc^r, 50; in the assay with E. coli D1-299 Tc^r, 25. Moreover, the “Antibacterial Activity (minimum inhibitory concentration)” value with S. aureus RN450 Tc^s is reported as less than 0.098; in [2] it was 25; in the assay with E. coli D31m4 Tc^s it was 1.56; with S. aureus RN4250 Tc^r, 25.

As for `CCOc1ccc(C=C2c3cccc(O)c3C(=O)C3=C(O)C4(O)C(=O)C(C(N)=O)=C(O)C(N(C)C)C4C(O)C23)cc1` (stereo not drawn) [K, [4S-(4a,12aα)]-13-(4′-ethoxyphenyl)-4-(dimethylamino)-1,4,4a,5,5a,6,11,12a-octahydro-3,5,10,12,12a-pentahydroxy-6-methylene-1,11-dioxo-2-naphthacenecarboxamide], the “Antibacterial Activity (minimum inhibitory concentration)” value is 12.5 in assay [1]; 0.39 in the assay on E. hirae ATCC9790 Tc^s; 6.25 in the assay on S. aureus MRSA5 Tc^r; greater than 50 in the assay on E. coli D1-209 Tc^r; greater than 50 in the assay on E. coli D1-299 Tc^r; 3.12 in assay [4]. For the same compound, the “Antibacterial Activity (minimum inhibitory concentration)” value in the assay on S. aureus RN450 Tc^s was 0.195; in assay [2], greater than 50.
